According to paper PMC2813745, “A novel inhibitor of the PI3K/Akt pathway based on the structure of inositol 1,3,4,5,6-pentakisphosphate” (British Journal of Cancer, 2010):

Experiments:
[1] = molecular target: PIK3CD/PIK3R1(p110δ/p85α) (Homo sapiens, UniProt O00329); test: SelectScreen kinase profiling: PIK3CD/PIK3R1; assay type: biochemical; settings: [ATP] 25 µM
Description: (§1) Effect of the indicated compounds on the activity of various kinases was assessed by SelectScreen Kinase Profiling Service (Invitrogen-Life Technologies, Paisley, UK). Assays were performed using 1 μM of the tested compounds and ATP concentration as indicated in the corresponding tables. In the case of […] a screen using 10 μM of the compound was also carried out, as indicated in the corresponding table.

CSNK1A1 (CK1α1) = CSNK1A1 (CK1α1) (Homo sapiens, UniProt P48729); test: SelectScreen kinase profiling: CSNK1A1; assay type: biochemical; settings: [ATP] 5 µM
Sequence of CSNK1A1 (CK1α1) (P48729 whole entry): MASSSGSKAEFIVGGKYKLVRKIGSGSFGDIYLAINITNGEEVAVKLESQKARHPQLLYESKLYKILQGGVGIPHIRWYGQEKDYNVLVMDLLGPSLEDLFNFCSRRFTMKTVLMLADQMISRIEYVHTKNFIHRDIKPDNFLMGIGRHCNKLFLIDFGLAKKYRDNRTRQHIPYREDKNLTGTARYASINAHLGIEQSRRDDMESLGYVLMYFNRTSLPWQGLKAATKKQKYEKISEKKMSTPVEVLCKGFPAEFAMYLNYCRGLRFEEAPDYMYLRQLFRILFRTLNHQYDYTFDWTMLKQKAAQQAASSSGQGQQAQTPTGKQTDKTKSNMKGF
Description: as §1

PRKCE (PKCε) = PRKCE (PKCε) (Homo sapiens, UniProt Q02156); test: SelectScreen kinase profiling: PRKCE; assay type: biochemical; settings: [ATP] 25 µM
Description: as §1

CDK2/cyclin A = CDK2/cyclin A (Homo sapiens, UniProt P24941); test: SelectScreen kinase profiling: CDK2/cyclin A; assay type: biochemical; settings: [ATP] 25 µM
Description: as §1

CDK7/cyclin H/MNAT1 = CDK7/cyclin H/MNAT1 (Homo sapiens, UniProt P50613); test: SelectScreen kinase profiling: CDK7/cyclin H/MNAT1; assay type: biochemical; settings: [ATP] 150 µM
Description: as §1

CLK1 = CLK1 (Homo sapiens, UniProt P49759); test: SelectScreen kinase profiling: CLK1; assay type: biochemical; settings: [ATP] 25 µM
Description: as §1

IKBKB (IKKβ) = IKBKB (IKKβ) (Homo sapiens, UniProt O14920); test: SelectScreen kinase profiling: IKBKB; assay type: biochemical; settings: 1 µM compound; [ATP] 5 µM
Description: as §1

AKT2 (PKBβ) = AKT2 (PKBβ) (Homo sapiens, UniProt P31751); test: SelectScreen kinase profiling: AKT2; assay type: biochemical; settings: for IC50: 10-point titration, [ATP] 200 μM
Sequence of AKT2 (PKBβ) (P31751 whole entry): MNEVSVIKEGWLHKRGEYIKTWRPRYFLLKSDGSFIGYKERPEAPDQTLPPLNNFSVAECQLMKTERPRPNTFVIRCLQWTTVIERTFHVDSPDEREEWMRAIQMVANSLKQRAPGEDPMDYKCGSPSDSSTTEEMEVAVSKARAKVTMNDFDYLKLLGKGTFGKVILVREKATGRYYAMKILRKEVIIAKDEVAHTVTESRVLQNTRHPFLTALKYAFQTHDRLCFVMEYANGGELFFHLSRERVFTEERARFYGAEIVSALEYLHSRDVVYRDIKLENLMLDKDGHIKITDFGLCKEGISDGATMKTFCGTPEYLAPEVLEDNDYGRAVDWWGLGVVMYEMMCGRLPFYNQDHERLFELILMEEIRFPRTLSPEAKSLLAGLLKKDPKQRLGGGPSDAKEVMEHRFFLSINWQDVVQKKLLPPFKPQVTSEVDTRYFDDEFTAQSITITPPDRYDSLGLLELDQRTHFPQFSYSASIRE
Description: as §1

GSK3B (GSK3β) = GSK3B (GSK3β) (Homo sapiens, UniProt P49841); test: SelectScreen kinase profiling: GSK3B; assay type: biochemical; settings: [ATP] 10 µM
Description: as §1

AMPK A1/B1/G1 = AMPK A1/B1/G1 (Homo sapiens, UniProt Q13131); test: SelectScreen kinase profiling: AMPK A1/B1/G1; assay type: biochemical; settings: 1 µM compound; [ATP] 50 µM
Sequence of AMPK A1/B1/G1 (Q13131 whole entry): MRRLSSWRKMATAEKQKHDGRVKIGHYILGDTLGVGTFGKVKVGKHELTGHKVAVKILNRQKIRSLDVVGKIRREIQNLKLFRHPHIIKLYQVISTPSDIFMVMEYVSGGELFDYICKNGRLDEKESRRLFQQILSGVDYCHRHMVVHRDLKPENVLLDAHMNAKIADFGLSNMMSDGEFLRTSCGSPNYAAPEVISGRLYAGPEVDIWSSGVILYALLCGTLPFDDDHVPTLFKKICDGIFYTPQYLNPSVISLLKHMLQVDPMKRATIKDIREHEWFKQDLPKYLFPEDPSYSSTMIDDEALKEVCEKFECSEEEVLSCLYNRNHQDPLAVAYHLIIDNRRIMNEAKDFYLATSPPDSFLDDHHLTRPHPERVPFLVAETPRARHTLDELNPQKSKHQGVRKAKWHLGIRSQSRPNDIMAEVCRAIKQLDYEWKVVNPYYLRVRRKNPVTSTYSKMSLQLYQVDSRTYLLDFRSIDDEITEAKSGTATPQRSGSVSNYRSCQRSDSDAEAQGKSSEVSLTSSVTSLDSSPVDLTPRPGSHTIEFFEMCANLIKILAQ
Sequence of AMPK A1/B1/G1 (Q9Y478 whole entry partner): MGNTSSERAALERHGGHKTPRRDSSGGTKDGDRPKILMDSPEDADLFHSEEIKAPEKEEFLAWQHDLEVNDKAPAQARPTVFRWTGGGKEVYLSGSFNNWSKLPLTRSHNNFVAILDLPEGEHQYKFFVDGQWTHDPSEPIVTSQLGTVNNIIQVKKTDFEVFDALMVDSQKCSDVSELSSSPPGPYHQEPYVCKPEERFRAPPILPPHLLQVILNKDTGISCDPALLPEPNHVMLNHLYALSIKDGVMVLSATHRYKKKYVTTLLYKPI
Sequence of AMPK A1/B1/G1 (P54619 whole entry partner): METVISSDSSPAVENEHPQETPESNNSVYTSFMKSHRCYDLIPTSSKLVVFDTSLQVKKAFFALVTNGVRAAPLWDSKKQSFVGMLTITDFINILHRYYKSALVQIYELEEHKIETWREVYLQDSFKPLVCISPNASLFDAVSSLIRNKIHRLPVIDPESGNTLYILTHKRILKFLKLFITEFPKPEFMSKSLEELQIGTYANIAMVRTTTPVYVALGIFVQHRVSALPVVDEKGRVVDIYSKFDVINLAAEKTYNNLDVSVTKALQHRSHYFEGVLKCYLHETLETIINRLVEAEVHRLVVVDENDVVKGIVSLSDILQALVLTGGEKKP
Description: as §1

CHUK (IKKα) = CHUK (IKKα) (Homo sapiens, UniProt O15111); test: SelectScreen kinase profiling: CHUK; assay type: biochemical; settings: [ATP] 10 µM
Description: as §1

MAPK1 (ERK2) = MAPK1 (ERK2) (Homo sapiens, UniProt P28482); test: SelectScreen kinase profiling: MAPK1; assay type: biochemical; settings: [ATP] 100 µM
Description: as §1

CAMK2A (CaMKII alpha) = CAMK2A (CaMKII alpha) (Homo sapiens, UniProt Q9UQM7); test: SelectScreen kinase profiling: CAMK2A; assay type: biochemical; settings: [ATP] 10 µM
Description: as §1

ABL1 = ABL1 (Homo sapiens, UniProt P00519); test: SelectScreen kinase profiling: ABL1; assay type: biochemical; settings: [ATP] 10 µM
Description: as §1

PRKCD (PKCδ) = PRKCD (PKCδ) (Homo sapiens, UniProt Q05655); test: SelectScreen kinase profiling: PRKCD; assay type: biochemical; settings: [ATP] 25 µM
Sequence of PRKCD (PKCδ) (Q05655 whole entry): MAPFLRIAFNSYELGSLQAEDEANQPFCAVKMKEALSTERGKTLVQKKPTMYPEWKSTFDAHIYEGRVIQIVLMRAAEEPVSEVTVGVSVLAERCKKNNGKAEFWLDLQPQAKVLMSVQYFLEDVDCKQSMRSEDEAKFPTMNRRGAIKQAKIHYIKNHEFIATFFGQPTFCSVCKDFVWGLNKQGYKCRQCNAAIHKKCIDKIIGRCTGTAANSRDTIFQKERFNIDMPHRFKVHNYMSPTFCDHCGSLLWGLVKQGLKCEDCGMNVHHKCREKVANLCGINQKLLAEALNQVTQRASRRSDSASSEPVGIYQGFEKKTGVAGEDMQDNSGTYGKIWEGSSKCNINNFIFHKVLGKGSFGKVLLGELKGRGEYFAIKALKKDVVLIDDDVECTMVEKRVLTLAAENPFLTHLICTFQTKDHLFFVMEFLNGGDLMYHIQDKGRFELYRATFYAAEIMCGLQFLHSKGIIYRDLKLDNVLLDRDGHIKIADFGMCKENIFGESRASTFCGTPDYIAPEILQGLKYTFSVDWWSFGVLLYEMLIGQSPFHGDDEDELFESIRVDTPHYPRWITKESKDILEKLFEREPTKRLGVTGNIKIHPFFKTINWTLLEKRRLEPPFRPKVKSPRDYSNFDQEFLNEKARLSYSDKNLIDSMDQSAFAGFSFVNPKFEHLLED
Description: as §1

GSK3A (GSK3α) = GSK3A (GSK3α) (Homo sapiens, UniProt P49840); test: SelectScreen kinase profiling: GSK3A; assay type: biochemical; settings: [ATP] 10 µM
Sequence of GSK3A (GSK3α) (P49840 whole entry): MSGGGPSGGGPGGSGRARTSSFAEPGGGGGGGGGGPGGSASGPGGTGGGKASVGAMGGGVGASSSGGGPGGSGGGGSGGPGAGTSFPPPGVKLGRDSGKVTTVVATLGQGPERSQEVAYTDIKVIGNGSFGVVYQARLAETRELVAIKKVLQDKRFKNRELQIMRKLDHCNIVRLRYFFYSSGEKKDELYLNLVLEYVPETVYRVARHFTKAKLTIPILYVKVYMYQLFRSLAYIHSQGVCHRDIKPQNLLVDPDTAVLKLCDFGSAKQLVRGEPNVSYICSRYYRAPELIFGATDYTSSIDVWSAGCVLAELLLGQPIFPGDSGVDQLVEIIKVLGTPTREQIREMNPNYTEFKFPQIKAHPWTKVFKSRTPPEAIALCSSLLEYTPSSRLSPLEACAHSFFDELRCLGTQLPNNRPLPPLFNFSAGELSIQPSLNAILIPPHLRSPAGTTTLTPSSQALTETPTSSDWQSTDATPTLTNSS
Description: as §1

RPS6KA1 (RSK1) = RPS6KA1 (RSK1) (Homo sapiens, UniProt Q15418); test: SelectScreen kinase profiling: RPS6KA1; assay type: biochemical; settings: [ATP] 5 µM
Description: as §1

MAP2K2 (MEK2) = MAP2K2 (MEK2) (Homo sapiens, UniProt P36507); test: SelectScreen kinase profiling: MAP2K2; assay type: biochemical; settings: [ATP] 100 µM
Description: as §1

PC3 xenografts = test: Anti-tumour activity assay on PC3 xenografts; assay type: in vivo, nude athymic CD-1 nu/nu mice; settings: for tumour growth: 14 consecutive days
Description: Male nude athymic CD-1 nu/nu mice (8-weeks old) were obtained from Harlan (San Pietro al Natisone, Italy) and maintained under specific pathogen-free conditions with food and water provided ad libitum. The general health status of the animals was monitored daily. Procedure involving animals and their care were conducted in conformity with the institutional guidelines that are in compliance with national and international laws and policies.
Exponentially growing PC3 cells were harvested, washed twice and resuspended in PBS at a concentration of 2.5 × 10^7 cells ml^−1. A suspension of 5 × 10^6 PC3 cells was injected subcutaneously (s.c.) into the left flank of the recipient mice. When tumours reached a size of ∼70 mm^3 (approximately 15 days after tumour cell implant), mice were divided into seven groups (n=7). […] Control mice were treated with water in an equal volume. The diameters of s.c. growing tumours were measured with a caliper twice a week and the experiment was ended at day 28 after the implantation.
The volume of s.c. growing tumours was calculated by the formula: Tumour weight (mg)=(length × width^2)/2. Differences in s.c tumour growth between the treatment groups were evaluated with a one-way ANOVA followed by Fisher's test using the StatView statistical package (SAS Institute, Cary, NC, USA). The percentage of tumour growth was calculated as T/C%=(RTV-treated animals/RTV-control animals) × 100, where RTV was the mean relative tumour volume calculated as RTV=Vt/V0. Vt was the tumour volume on the day of measurement and V0 was the tumour volume at the beginning of the treatment. The percentage of tumour weight inhibition (TWI%) was calculated using the formula: TWI%=100–T/C%. The log cell kill (LCK) was calculated using the formula: LCK=T−C/3.32 × Td, where T−C is the tumour growth delay calculated as the difference in median time (in days) required for the tumours in the treatment (T) and control group (C) to reach a predetermined size (i.e., 1000 mg). Td is the tumour volume doubling time in days, determined in the exponential growth phase of the control group from a best-fit straight line. […]
The inositol compounds (12.5–25–50 mg kg^−1 day^−1) and vehicle (water) were given daily by intraperitoneal (i.p.) injections for 14 consecutive days (days 15–28). Tumour size was assessed twice weekly. (A, B) Tumour growth in 2-O-Bn-InsP5-treated mice (A) and InsP5-treated mice (B) compared with control group measured for the duration of the experiment. Results are expressed as mean±s.e. […] The percentage of tumour weight inhibition (TWI%), the tumour growth delay (T−C) and the log cell kill (LCK) were calculated as described in the MATERIALS AND METHODS section. […] Phosphorylation of Akt at its residues Ser473 and Thr308 was assessed by using specific antibodies. […]

MARK1 (MARK) = MARK1 (MARK) (Homo sapiens, UniProt Q9P0L2); test: SelectScreen kinase profiling: MARK1; assay type: biochemical; settings: [ATP] 5 µM
Description: as §1

Sequence of PIK3CD/PIK3R1(p110δ/p85α) (O00329 whole entry): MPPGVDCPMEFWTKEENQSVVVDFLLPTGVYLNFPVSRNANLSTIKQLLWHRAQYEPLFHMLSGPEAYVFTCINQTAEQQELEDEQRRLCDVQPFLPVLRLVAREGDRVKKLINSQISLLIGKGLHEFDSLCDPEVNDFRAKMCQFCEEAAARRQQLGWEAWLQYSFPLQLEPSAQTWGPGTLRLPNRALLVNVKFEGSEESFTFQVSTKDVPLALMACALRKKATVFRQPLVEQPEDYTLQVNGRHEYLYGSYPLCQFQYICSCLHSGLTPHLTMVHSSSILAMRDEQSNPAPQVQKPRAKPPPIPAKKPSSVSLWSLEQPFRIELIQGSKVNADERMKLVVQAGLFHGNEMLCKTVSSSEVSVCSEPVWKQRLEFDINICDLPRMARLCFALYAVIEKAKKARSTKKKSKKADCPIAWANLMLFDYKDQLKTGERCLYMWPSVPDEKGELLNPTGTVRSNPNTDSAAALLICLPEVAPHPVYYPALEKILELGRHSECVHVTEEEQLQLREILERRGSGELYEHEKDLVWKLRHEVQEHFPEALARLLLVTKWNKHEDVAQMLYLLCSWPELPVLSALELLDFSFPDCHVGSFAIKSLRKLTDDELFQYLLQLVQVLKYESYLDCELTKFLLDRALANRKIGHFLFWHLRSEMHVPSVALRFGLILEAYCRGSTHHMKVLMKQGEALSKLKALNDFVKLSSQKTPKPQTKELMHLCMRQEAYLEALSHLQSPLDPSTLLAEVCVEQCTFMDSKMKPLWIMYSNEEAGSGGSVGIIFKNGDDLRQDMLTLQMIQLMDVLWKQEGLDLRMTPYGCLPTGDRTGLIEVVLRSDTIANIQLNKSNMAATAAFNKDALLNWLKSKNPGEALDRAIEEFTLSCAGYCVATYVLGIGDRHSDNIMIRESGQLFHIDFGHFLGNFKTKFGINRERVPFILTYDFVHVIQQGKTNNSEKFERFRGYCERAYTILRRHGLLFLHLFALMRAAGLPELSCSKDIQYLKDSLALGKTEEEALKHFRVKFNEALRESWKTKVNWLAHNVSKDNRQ
Sequence of PIK3CD/PIK3R1(p110δ/p85α) (P27986 whole entry partner): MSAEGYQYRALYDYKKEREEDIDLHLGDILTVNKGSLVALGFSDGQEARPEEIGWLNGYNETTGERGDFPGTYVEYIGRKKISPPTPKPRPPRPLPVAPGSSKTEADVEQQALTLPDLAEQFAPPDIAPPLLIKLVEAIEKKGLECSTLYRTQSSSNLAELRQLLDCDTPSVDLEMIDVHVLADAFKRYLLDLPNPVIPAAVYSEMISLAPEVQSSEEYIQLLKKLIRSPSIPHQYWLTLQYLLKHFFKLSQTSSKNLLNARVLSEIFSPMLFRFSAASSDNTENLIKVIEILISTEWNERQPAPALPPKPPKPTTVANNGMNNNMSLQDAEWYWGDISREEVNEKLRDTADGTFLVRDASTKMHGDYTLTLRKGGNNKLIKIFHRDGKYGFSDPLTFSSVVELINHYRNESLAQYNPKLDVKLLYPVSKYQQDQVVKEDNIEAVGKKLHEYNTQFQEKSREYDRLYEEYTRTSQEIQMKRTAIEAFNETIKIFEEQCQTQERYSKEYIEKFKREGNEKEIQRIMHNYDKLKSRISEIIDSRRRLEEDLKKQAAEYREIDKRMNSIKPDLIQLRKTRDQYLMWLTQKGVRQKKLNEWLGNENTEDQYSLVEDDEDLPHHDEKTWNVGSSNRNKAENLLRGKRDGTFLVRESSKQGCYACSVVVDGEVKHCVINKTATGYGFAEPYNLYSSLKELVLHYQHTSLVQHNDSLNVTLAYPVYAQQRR

**Q.** For `O=P(O)(O)OC1C(OCc2ccccc2)C(OP(=O)(O)O)C(OP(=O)(O)O)C(OP(=O)(O)O)C1OP(=O)(O)O` (stereo not shown) [2-O-Bn-InsP5, 2-O-benzyl-myo-inositol 1,3,4,5,6-pentakisphosphate], which inhibition at 1 µM ([1]; 1 µM compound) is on record?
**A.** Its inhibition at 1 µM is 6%.

**Q.** What about the inhibition at 1 µM (CSNK1A1 (CK1α1); 1 µM compound) of the same compound?
**A.** Its inhibition at 1 µM is 0%.

**Q.** What about the inhibition at 1 µM (PRKCE (PKCε); 1 µM compound) of the same compound?
**A.** Its inhibition at 1 µM is 14%.

**Q.** And the inhibition at 1 µM (CDK2/cyclin A; 1 µM compound)?
**A.** The inhibition at 1 µM was 2%.

**Q.** And the inhibition at 1 µM (CDK7/cyclin H/MNAT1; 1 µM compound)?
**A.** The inhibition at 1 µM was -2%.

**Q.** And the inhibition at 1 µM (CLK1; 1 µM compound)?
**A.** Its inhibition at 1 µM is -4%.

**Q.** What about the inhibition at 1 µM (IKBKB (IKKβ)) of the same compound?
**A.** Its inhibition at 1 µM is 13%.

**Q.** What about the inhibition at 1 µM (AKT2 (PKBβ); 1 µM compound, [ATP] 200 µM) of the same compound?
**A.** Its inhibition at 1 µM is 16%.

**Q.** And the IC50 (AKT2 (PKBβ))?
**A.** The IC50 was 77 µM.

**Q.** And the inhibition at 1 µM (GSK3B (GSK3β); 1 µM compound)?
**A.** Its inhibition at 1 µM is 11%.

**Q.** What about the inhibition at 1 µM (AMPK A1/B1/G1) of the same compound?
**A.** Its inhibition at 1 µM is 16%.

**Q.** What about the inhibition at 1 µM (CHUK (IKKα); 1 µM compound) of the same compound?
**A.** Its inhibition at 1 µM is -2%.

**Q.** And the inhibition at 1 µM (MAPK1 (ERK2); 1 µM compound)?
**A.** The inhibition at 1 µM was 6%.

**Q.** What about the inhibition at 1 µM (CAMK2A (CaMKII alpha); 1 µM compound) of the same compound?
**A.** Its inhibition at 1 µM is -2%.

**Q.** What about the inhibition at 1 µM (ABL1; 1 µM compound) of the same compound?
**A.** The inhibition at 1 µM was 0%.

**Q.** And the inhibition at 1 µM (PRKCD (PKCδ); 1 µM compound)?
**A.** The inhibition at 1 µM was 9%.

**Q.** And the inhibition at 1 µM (GSK3A (GSK3α); 1 µM compound)?
**A.** The inhibition at 1 µM was 3%.

**Q.** What about the inhibition at 1 µM (RPS6KA1 (RSK1); 1 µM compound) of the same compound?
**A.** Its inhibition at 1 µM is 2%.

**Q.** What about the inhibition at 1 µM (MAP2K2 (MEK2); 1 µM compound) of the same compound?
**A.** The inhibition at 1 µM was 8%.

**Q.** And the “T-C (tumour growth delay)” value (PC3 xenografts; 50 mg kg^-1, i.p., qdx15)?
**A.** The value was roughly 9 days.

**Q.** What about the tumour growth (PC3 xenografts; 50 mg kg^−1 daily i.p., significant from day 22) of the same compound?
**A.** The tumour growth was “strong reduction in tumour growth”.

**Q.** And the tumour growth (PC3 xenografts; 12.5 and 25 mg kg^−1 daily i.p., vs untreated mice)?
**A.** Its tumour growth is “clearly decreased the growth of tumours”.

**Q.** And the inhibition at 1 µM (MARK1 (MARK); 1 µM compound)?
**A.** Its inhibition at 1 µM is 0%.

**Q.** `O=P(O)(O)OC1C(O)C(OP(=O)(O)O)C(OP(=O)(O)O)C(OP(=O)(O)O)C1OP(=O)(O)O` (stereo not shown) [InsP5, inositol 1,3,4,5,6-pentakisphosphate] was tested. Which inhibition at 10 µM ([1]; 10 µM compound) did it give?
**A.** The inhibition at 10 µM was -2%.

**Q.** What about the inhibition at 10 µM (CSNK1A1 (CK1α1); 10 µM compound) of the same compound?
**A.** Its inhibition at 10 µM is 13%.

**Q.** And the inhibition at 10 µM (PRKCE (PKCε); 10 µM compound)?
**A.** The inhibition at 10 µM was 0%.

**Q.** And the inhibition at 10 µM (CDK2/cyclin A; 10 µM compound)?
**A.** Its inhibition at 10 µM is 9%.

**Q.** And the inhibition at 10 µM (CDK7/cyclin H/MNAT1; 10 µM compound)?
**A.** The inhibition at 10 µM was 0%.

**Q.** And the inhibition at 10 µM (CLK1; 10 µM compound)?
**A.** The inhibition at 10 µM was 9%.

**Q.** And the inhibition at 1 µM (IKBKB (IKKβ))?
**A.** The inhibition at 1 µM was 1%.

**Q.** And the IC50 (AKT2 (PKBβ))?
**A.** The IC50 was 38.3 µM.

**Q.** And the inhibition at 10 µM (GSK3B (GSK3β); 10 µM compound)?
**A.** The inhibition at 10 µM was 20%.

**Q.** And the inhibition at 1 µM (AMPK A1/B1/G1)?
**A.** Its inhibition at 1 µM is 4%.

**Q.** What about the inhibition at 10 µM (CHUK (IKKα); 10 µM compound) of the same compound?
**A.** The inhibition at 10 µM was 3%.

**Q.** What about the inhibition at 10 µM (MAPK1 (ERK2); 10 µM compound) of the same compound?
**A.** The inhibition at 10 µM was 8%.

**Q.** What about the inhibition at 10 µM (CAMK2A (CaMKII alpha); 10 µM compound) of the same compound?
**A.** Its inhibition at 10 µM is 17%.

**Q.** What about the inhibition at 10 µM (ABL1; 10 µM compound) of the same compound?
**A.** Its inhibition at 10 µM is -16%.

**Q.** What about the inhibition at 10 µM (PRKCD (PKCδ); 10 µM compound) of the same compound?
**A.** The inhibition at 10 µM was 19%.

**Q.** And the inhibition at 10 µM (GSK3A (GSK3α); 10 µM compound)?
**A.** The inhibition at 10 µM was 15%.

**Q.** What about the inhibition at 10 µM (RPS6KA1 (RSK1); 10 µM compound) of the same compound?
**A.** The inhibition at 10 µM was 12%.

**Q.** What about the inhibition at 10 µM (MAP2K2 (MEK2); 10 µM compound) of the same compound?
**A.** Its inhibition at 10 µM is 3%.

**Q.** And the tumour growth (PC3 xenografts; up to 50 mg kg^−1 daily i.p.)?
**A.** Its tumour growth is “no effect”.

**Q.** And the inhibition at 10 µM (MARK1 (MARK); 10 µM compound)?
**A.** Its inhibition at 10 µM is 7%.
